From article PMC4585962, “A peptide factor secreted by Staphylococcus pseudintermedius exhibits properties of both bacteriocins and virulence factors” (Scientific Reports, 2015)
No end group written: not given here. *: point of attachment. For = O=C*

Assays:
[1] = system: B. subtilis 1A751 (pALCP2G); experiment: GFP release assay; assay type: cell-based, Bacillus subtilis; settings: 2 × 10^6 CFU in PBS, 1 h 37 °C, 0.23 to 15 μM BacSp222, fluorescence of supernatant 480/510 nm
Experimental: (§1) The bacteria transformed with GFP-encoding plasmids (pCN68[59] for S. aureus RN4220; pALCP2G[60] for B. subtilis 1A751[61] and E. coli DH5α) were grown overnight in TSB supplemented with appropriate antibiotics, washed twice and finally suspended in PBS. Fifty microliters of the suspensions containing 2 × 10^6 CFU of bacteria were then incubated for 1 h at 37 °C with serial dilutions of BacSp222 at concentrations ranging from 0.23 to 15 μM. Then, the bacteria were spun down, and the fluorescence in the supernatant was determined (Synergy H1 microplate reader, BioTek, 480/510 nm excitation/emission wavelengths). As the controls for 100% GFP release, S. aureus and B. subtilis were lysed using lysostaphin and chicken egg white lysozyme (Sigma), respectively, whereas the E. coli cells were disrupted by ultrasonication.

S. aureus = experiment: Bactericidal test, plating on TSA after incubation; assay type: cell-based, Staphylococcus aureus; settings: 1 × 10^4 CFU incubated with 1 μM bacteriocin for 30 minutes (data not shown)
staphopain C (StpC) = experiment: Susceptibility to proteolysis, residual bactericidal activity; assay type: in vitro ADME, S. aureus; settings: 30 μM peptide, 100 mM Tris-HCl pH 7.5 with 5 mM cysteine hydrochloride and 5 mM EDTA, enzyme:peptide 1:50 or 1:10 (w/w), 3 hours, 37 °C; residual activity by radial diffusion assay on B. subtilis; triplicate
Experimental: (§2) The bactericidal activity of BacSp222 was also determined using the radial diffusion assay. In TSB agar (1%, w/v) containing a 200× diluted overnight culture of Bacillus subtilis ATCC 6633, wells of 2.4-mm diameter were created by drilling out the agar and filling the hole with 10 μl of the BacSp222 preparation for testing. Following overnight incubation at 37 °C, the bactericidal activity was measured as the area of the inhibition zones.
(§3) The temperature stability of BacSp222 (30 μM final concentration) was determined in PBS. The solution was incubated for 1 or 3 h at 72 °C (typical temperature of pasteurization) or at 100 °C. Independently, a solution of bacteriocin was also subjected to a full cycle of autoclaving (20 min at 121 °C). The susceptibility of BacSp222 to proteolysis was verified using S. aureus staphopain C and V8 peptidase, human neutrophil elastase, human cathepsin G (Biocentrum), bovine TPCK-treated trypsin, pepsin from porcine gastric mucosa (Sigma), and proteinase K (A&A Biotechnology). […] The residual activity was determined with the radial diffusion assay using Bacillus subtilis as an indicator strain. […]

V8 peptidase = molecular target: T1, V8 peptidase (Staphylococcus aureus, UniProt P0C1U8); experiment: as above; assay type: in vitro ADME, S. aureus; settings: 30 μM peptide, 100 mM sodium phosphate pH 7.8, enzyme:peptide 1:50 or 1:10 (w/w), 3 hours, 37 °C; residual activity by radial diffusion assay on B. subtilis; triplicate
T1 construct: purchased Biocentrum
T1 sequence (P0C1U8 69-336): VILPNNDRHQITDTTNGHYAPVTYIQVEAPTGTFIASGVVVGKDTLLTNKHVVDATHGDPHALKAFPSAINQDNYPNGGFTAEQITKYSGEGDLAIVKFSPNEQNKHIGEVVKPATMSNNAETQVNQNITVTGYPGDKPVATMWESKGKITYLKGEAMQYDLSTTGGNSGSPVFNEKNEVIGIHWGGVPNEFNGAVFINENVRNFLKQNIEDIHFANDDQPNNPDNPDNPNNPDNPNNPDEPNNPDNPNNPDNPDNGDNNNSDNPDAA
Experimental: as §2, §3

E. coli DH5α (pALCP2G) = experiment: GFP release assay; assay type: cell-based, Escherichia coli; settings: 2 × 10^6 CFU in PBS, 1 h 37 °C, 0.23 to 15 μM BacSp222, fluorescence of supernatant 480/510 nm
Experimental: as §1

[2] = system: Staphylococcus saprophyticus ATCC 15305; experiment: MIC, microdilution assay; assay type: cell-based; settings: broth microdilution (CLSI), MHB, overnight 37 °C, OD 600 nm; mean of three independent measurements
Experimental: (§4) The microbicidal activity of BacSp222 was determined using the microdilution method in compliance with Clinical and Laboratory Standards Institute (CLSI, for bacteria) guidelines M7-A7[57] and in compliance with the European Committee on Antimicrobial Susceptibility Testing - Subcommittee on Antifungal Susceptibility Testing (EUCAST-AFST, for fungi)[58]. Briefly, the microorganisms were cultivated in dedicated liquid media to reach the early exponential phase or, in the case of Streptococcus spp., grown overnight on agar MHB supplemented with 2.5% (v/v) lysed horse blood (LHB). Subsequently, the microorganisms were diluted to 1 × 10^6 CFU/ml (estimated using an Eddy Jet 2 automatic spiral plater, IUL) in MHB; in MHB supplemented with 5% (v/v) LHB (for streptococci); or, in the case of Candida albicans, in RPMI-1640 medium (Thermo) without L-Glu and phenol red, supplemented with 0.6 g/l L-Glu, 34.53 g/l 3-(N-morpholino)propanesulphonic acid and 18 g/l glucose, pH 7.0. Fifty microliters of microorganism suspension were mixed with an equal volume of appropriate medium containing serial 2- or 1.5-fold dilutions of BacSp222. After the cultures were incubated overnight at 37 °C, the optical density (OD) at 600 nm was measured. The minimal inhibitory concentration (MIC), calculated as a mean value from three independent measurements, was defined as the minimum peptide concentration for which an increase in OD was not observed compared to uninoculated broth.

[3] = system: Streptococcus sanguinis PCM 2335; experiment: MIC, microdilution assay; assay type: cell-based; settings: broth microdilution (CLSI), MHB with 5% lysed horse blood, overnight 37 °C, OD 600 nm; mean of three independent measurements
Experimental: as §4

[4] = system: Staphylococcus epidermidis ATCC 35547; experiment: MIC, microdilution assay; assay type: cell-based; settings: broth microdilution (CLSI), MHB, overnight 37 °C, OD 600 nm; mean of three independent measurements
Experimental: as §4

B. subtilis = experiment: Bactericidal test, plating on TSA after incubation; assay type: cell-based, Bacillus subtilis; settings: 1 × 10^4 CFU incubated with 1 μM bacteriocin for 30 minutes (data not shown)
[5] = Conformational stability by CD, ellipticity at 220 nm against temperature; assay type: physicochemical; settings: 125 μg/ml in PBS, 20–90 °C at 1 °C/min
Experimental: The circular dichroism (CD) spectra of BacSp222 (125 μg/ml in PBS) were recorded using a J-715 spectropolarimeter (Jasco). The spectra were recorded at room temperature in the range 190–240 nm and were averaged over three independent passes. The amount of secondary structures was estimated by fitting the measured spectra to the reference spectra of natural native proteins (Prot, Jasco) or synthetic polypeptides (Yang, Jasco). To evaluate the conformational stability of the BacSp222 molecule at different temperatures, the ellipticity of the polarized light was recorded at 220 nm over the temperature range 20–90 °C at 1 °C/min increments.

In the case of “For-MAGLLRFLLSKGRALYNWAKSHVGKVWEWLKSGATYEQIKEWIENALGWR [BacSp222]”, the “leakage of GFP from recombinant cells” value [1] is reported as “dose-dependent leakage of GFP was observed”, the “colonies after plating on TSA” value (S. aureus) is reported as “complete absence of the colonies” and the “activity of BacSp222 after incubation with the enzyme” value (staphopain C (StpC)) is reported as “not significantly reduced”. The “activity of BacSp222 after incubation with the enzyme” value (V8 peptidase) was “not significantly reduced”, the “leakage of GFP from recombinant cells” value (E. coli DH5α (pALCP2G)) was “not” and the “MIC ± SD” value [2] was 0.93 ± 0.36 µM. The “MIC ± SD” value [3] was 3.50 ± 0.85 µM, the “MIC ± SD” value [4] was 4.40 ± 0.00 µM and the “colonies after plating on TSA” value (B. subtilis) was “complete absence of the colonies”. The “ellipticity at 220 nm at elevated temperatures” value [5] was “lack of changes in ellipticity at 220 nm, up to 90 °C”.
